*1 amine or outer side, *2 acyl side, *3 side chain or, on linkers, in order; H or OH if unused. Where a SMILES comes first, the peptide text is derived from it. Bridges are numbered along the chain shown (N, C = ends). [ ]: non-standard residue; d: D form. The star is where a group is joined. X3 = O=C(O)CN1CCN(CC(=O)O)CCN(CC(=O)NCCCOCCOCCOCCCN*)CCN(CC(=O)O)CC1; DOTA = O=C(O)CN1CCN(CC(=O)O)CCN(CC(=O)*)CCN(CC(=O)O)CC1; Trp(5-Br) = N[C@@H](Cc1c[nH]c2ccc(Br)cc12)C(=O)O; Trp(5-Cl) = N[C@@H](Cc1c[nH]c2ccc(Cl)cc12)C(=O)O; Pyridine(2,6-diCH2) = c1cc(C[*:1])nc(C[*:2])c1; Trp(6-F) = N[C@@H](Cc1c[nH]c2cc(F)ccc12)C(=O)O; Pro(3S-OH) = O=C(O)[C@H]1NCC[C@@H]1O; X7 = c1cc(CSCCN[*:2])cc(C[*:1])c1; Hyp = O=C(O)[C@@H]1C[C@@H](O)CN1; Suc = O=C(CCC(=O)[*:2])[*:1]; hLeu = CC(C)CC[C@H](N)C(=O)O; αMeS = C[C@](N)(CO)C(=O)O; Api = NC1(C(=O)O)CCNCC1; Thp = NC1(C(=O)O)CCOCC1; Aib = CC(C)(N)C(=O)O; Sar = CNCC(=O)O
target: T1, GIPR (CHO-K1-hGIPR cells) (Homo sapiens, UniProt P48546); assay: FACS binding assay; settings: competition with 20 nM GIP-057, 4° C., 1 hour, read-out: pIC50 Category (converted)
T1 construct: host or cells: CHO-K1
T1 sequence (P48546 22-466): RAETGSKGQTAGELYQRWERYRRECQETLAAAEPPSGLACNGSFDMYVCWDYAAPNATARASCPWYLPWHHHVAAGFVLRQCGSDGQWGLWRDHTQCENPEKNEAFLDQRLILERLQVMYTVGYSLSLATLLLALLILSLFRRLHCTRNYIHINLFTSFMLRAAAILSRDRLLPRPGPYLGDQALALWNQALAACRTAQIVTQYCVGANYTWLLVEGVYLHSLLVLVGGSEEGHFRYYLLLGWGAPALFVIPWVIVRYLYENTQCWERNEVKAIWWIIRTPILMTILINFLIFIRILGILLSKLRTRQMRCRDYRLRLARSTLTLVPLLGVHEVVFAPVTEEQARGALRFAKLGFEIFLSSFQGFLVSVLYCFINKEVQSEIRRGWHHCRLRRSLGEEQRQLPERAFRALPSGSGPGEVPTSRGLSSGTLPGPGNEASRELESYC
Procedure, shortened: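 Read-out: flow cytometric median fluorescence intensity, APC/Cy5 channel, plotted vs peptide conc.; 4PL fit → EC50/pEC50 or IC50/pIC50. Cells: CHO-K1-hGIPR, Accutase-detached, 500.000/mL in PBS + 1% FCS. Detection: APC-streptavidin 1 μg/mL, 30 min, on ice.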

IC50 [nM] | SMILES
< 10 | CC[C@H](C)[C@@H]1NC(=O)[C@H](CCC(C)C)NC(=O)C(C)(C)NC(=O)[C@@H](NC(=O)[C@@H](CC(C)C)NC(=O)[C@H](CCC(=O)O)NC(=O)[C@@H]2CCCN2C(=O)[C@H](Cc2c[nH]c3ccc(Cl)cc23)NC(=O)[C@H](Cc2c[nH]c3ccccc23)NC(=O)[C@H](CC(=O)O)NC(=O)CCC(=O)NCCCOCCOCCOCCCNC(=O)CN2CCN(CC(=O)O)CCN(CC(=O)O)CCN(CC(=O)O)CC2)CSCc2cccc(c2)CSCCNC1=O [GIP-099, DOTA-Ttds-Asp-Trp-5Clw-Pro-Glu-leu-[Cys(3MeBn)-Aib-Hle-Ile-AET]] ({X3-Suc}-DW[Trp(5-Cl)]PE[dL]C[Aib][hLeu]I; linker 7-C via X7)
< 10 | CC[C@H](C)[C@@H]1NC(=O)[C@H](CC(C)C)NC(=O)[C@](C)(CO)NC(=O)[C@@H](NC(=O)[C@@H](CC(C)C)NC(=O)[C@H](CCC(=O)O)NC(=O)[C@@H]2CCCN2C(=O)[C@H](Cc2c[nH]c3ccc(Cl)cc23)NC(=O)[C@H](Cc2c[nH]c3ccccc23)NC(=O)[C@H](CC(=O)O)NC(=O)CCC(=O)NCCCOCCOCCOCCCNC(=O)CN2CCN(CC(=O)O)CCN(CC(=O)O)CCN(CC(=O)O)CC2)CSCc2cccc(c2)CSCCNC1=O [GIP-101, DOTA-Ttds-Asp-Trp-5Clw-Pro-Glu-leu-[Cys(3MeBn)-Ams-Leu-Ile-AET]] ({X3-Suc}-DW[Trp(5-Cl)]PE[dL]C[αMeS]LI; linker 7-C via X7)
< 10 | CC[C@H](C)[C@@H]1NC(=O)[C@H](CC(C)C)NC(=O)C(C)(C)NC(=O)[C@@H](NC(=O)[C@@H](CC(C)C)NC(=O)[C@H](CCC(=O)O)NC(=O)[C@@H]2[C@@H](O)CCN2C(=O)[C@H](Cc2c[nH]c3ccc(Cl)cc23)NC(=O)[C@H](Cc2c[nH]c3ccccc23)NC(=O)[C@H](CC(=O)O)NC(=O)CCC(=O)NCCCOCCOCCOCCCNC(=O)CN2CCN(CC(=O)O)CCN(CC(=O)O)CCN(CC(=O)O)CC2)CSCc2cccc(c2)CSCCNC1=O [GIP-102, DOTA-Ttds-Asp-Trp-5Clw-H3p-Glu-leu-[Cys(3MeBn)-Aib-Leu-Ile-AET]] ({X3-Suc}-DW[Trp(5-Cl)][Pro(3S-OH)]E[dL]C[Aib]LI; linker 7-C via X7)
< 10 | CC[C@H](C)[C@@H]1NC(=O)[C@H](CC(C)C)NC(=O)C2(CCOCC2)NC(=O)[C@@H](NC(=O)[C@@H](CC(C)C)NC(=O)[C@H](CCC(=O)O)NC(=O)[C@@H]2C[C@@H](O)CN2C(=O)[C@H](Cc2c[nH]c3ccc(Cl)cc23)NC(=O)[C@H](Cc2c[nH]c3ccccc23)NC(=O)CCC(=O)O)CSCc2cccc(n2)CSC[C@@H](C(=O)N[C@@H](CCCCNC(=O)CN2CCN(CC(=O)O)CCN(CC(=O)O)CCN(CC(=O)O)CC2)C(N)=O)NC1=O [GIP-115, HO-Succinyl-Trp-5Clw-Hyp-Glu-leu-[Cys(2Lut)-Thp-Leu-Ile-Cys]-Lys(DOTA)-NH2] (Suc-W[Trp(5-Cl)][Hyp]E[dL]C[Thp]LICK(DOTA)-NH2; linker 6-10 via Pyridine(2,6-diCH2))
< 10 | CC[C@H](C)[C@@H]1NC(=O)[C@H](CC(C)C)NC(=O)C2(CCOCC2)NC(=O)[C@@H](NC(=O)[C@@H](CC(C)C)NC(=O)[C@H](CCC(=O)O)NC(=O)[C@@H]2C[C@@H](O)CN2C(=O)[C@H](Cc2c[nH]c3ccc(Cl)cc23)NC(=O)[C@H](Cc2c[nH]c3ccccc23)NC(=O)CCC(=O)O)CSCc2cccc(n2)CSC[C@@H](C(=O)N[C@H](CCCCNC(=O)CN2CCN(CC(=O)O)CCN(CC(=O)O)CCN(CC(=O)O)CC2)C(N)=O)NC1=O [GIP-116, HO-Succinyl-Trp-5Clw-Hyp-Glu-leu-[Cys(2Lut)-Thp-Leu-Ile-Cys]-lys(DOTA)-NH2] (Suc-W[Trp(5-Cl)][Hyp]E[dL]C[Thp]LIC[dK](DOTA)-NH2; linker 6-10 via Pyridine(2,6-diCH2))
< 10 | CC[C@H](C)[C@@H]1NC(=O)[C@H](CC(C)C)NC(=O)C2(CCN(C(=O)CN3CCN(CC(=O)O)CCN(CC(=O)O)CCN(CC(=O)O)CC3)CC2)NC(=O)[C@@H](NC(=O)[C@@H](CC(C)C)NC(=O)[C@H](CCC(=O)O)NC(=O)[C@@H]2C[C@@H](O)CN2C(=O)[C@H](Cc2c[nH]c3ccc(Cl)cc23)NC(=O)[C@H](Cc2c[nH]c3ccccc23)NC(=O)[C@H](CC(=O)O)NC(C)=O)CSCc2cccc(n2)CSC[C@@H](C(N)=O)NC1=O [GIP-122, Ac-Asp-Trp-5Clw-Hyp-Glu-leu-[Cys(2Lut)-Apc(DOTA)-Leu-Ile-Cys]-NH2] (Ac-DW[Trp(5-Cl)][Hyp]E[dL]C[Api](DOTA)LIC-NH2; linker 7-11 via Pyridine(2,6-diCH2))

Second part, the compound before the results:

SMILES | IC50 [nM]
CC[C@H](C)[C@@H]1NC(=O)[C@H](CC(C)C)NC(=O)C(C)(C)NC(=O)[C@@H](NC(=O)[C@@H](CC(C)C)NC(=O)[C@H](CCC(=O)O)NC(=O)[C@@H]2CCCN2C(=O)[C@H](Cc2c[nH]c3ccc(Cl)cc23)NC(=O)[C@H](Cc2c[nH]c3ccccc23)NC(=O)[C@H](CC(=O)O)NC(=O)CCC(=O)NCCCOCCOCCOCCCNC(=O)CN2CCN(CC(=O)O)CCN(CC(=O)O)CCN(CC(=O)O)CC2)CNCc2cccc(c2)C[S+]([O-])CCNC1=O (stereo partly drawn) [GIP-098, DOTA-Ttds-Asp-Trp-5Clw-Pro-Glu-leu-[Dap(3MeBn)-Aib-Leu-Ile-AETO]] | < 10
CC[C@H](C)[C@@H]1NC(=O)[C@H](CC(C)C)NC(=O)C(C)(C)NC(=O)[C@@H](NC(=O)[C@@H](CC(C)C)NC(=O)[C@H](CCC(=O)O)NC(=O)CN(C)C(=O)[C@H](Cc2c[nH]c3ccc(Cl)cc23)NC(=O)[C@H](Cc2c[nH]c3ccccc23)NC(=O)[C@H](CC(=O)O)NC(=O)CCC(=O)NCCCOCCOCCOCCCNC(=O)CN2CCN(CC(=O)O)CCN(CC(=O)O)CCN(CC(=O)O)CC2)CSCc2cccc(c2)CSCCNC1=O [GIP-100, DOTA-Ttds-Asp-Trp-5Clw-Nmg-Glu-leu-[Cys(3MeBn)-Aib-Leu-Ile-AET]] ({X3-Suc}-DW[Trp(5-Cl)][Sar]E[dL]C[Aib]LI; linker 7-C via X7) | < 10
CC[C@H](C)[C@@H]1NC(=O)[C@H](CC(C)C)NC(=O)C(C)(C)NC(=O)[C@@H](NC(=O)[C@@H](CC(C)C)NC(=O)[C@H](CCC(=O)O)NC(=O)[C@@H]2CCCN2C(=O)[C@H](Cc2c[nH]c3ccc(Cl)cc23)NC(=O)[C@H](Cc2c[nH]c3cc(F)ccc23)NC(=O)[C@H](CC(=O)O)NC(=O)CCC(=O)NCCCOCCOCCOCCCNC(=O)CN2CCN(CC(=O)O)CCN(CC(=O)O)CCN(CC(=O)O)CC2)CSCc2cccc(c2)CSCCNC1=O [GIP-104, DOTA-Ttds-Asp-6Fw-5Clw-Pro-Glu-leu-[Cys(3MeBn)-Aib-Leu-Ile-AET]] ({X3-Suc}-D[Trp(6-F)][Trp(5-Cl)]PE[dL]C[Aib]LI; linker 7-C via X7) | < 10
CC[C@H](C)[C@@H]1NC(=O)[C@H](CC(C)C)NC(=O)C(C)(C)NC(=O)[C@@H](NC(=O)[C@@H](CC(C)C)NC(=O)[C@H](CCC(=O)O)NC(=O)[C@@H]2CCCN2C(=O)[C@H](Cc2c[nH]c3ccc(Br)cc23)NC(=O)[C@H](Cc2c[nH]c3cc(F)ccc23)NC(=O)[C@H](CC(=O)O)NC(=O)CCC(=O)NCCCOCCOCCOCCCNC(=O)CN2CCN(CC(=O)O)CCN(CC(=O)O)CCN(CC(=O)O)CC2)CSCc2cccc(c2)CSCCNC1=O [GIP-105, DOTA-Ttds-Asp-6Fw-5Brw-Pro-Glu-leu-[Cys(3MeBn)-Aib-Leu-Ile-AET]] ({X3-Suc}-D[Trp(6-F)][Trp(5-Br)]PE[dL]C[Aib]LI; linker 7-C via X7) | < 10

Reference: patent US20250296971A1, “GASTRIC INHIBITORY PEPTIDE RECEPTOR LIGANDS” (priority 2021, published 2025)
